Patent publication US8895568B2, “Compositions comprising substituted pteridines as agrochemicals” (Dow AgroSciences LLC, priority 2009, dated 2014)

Columns and labels:
Format in all cases: in vivo
Cochliobolus sativus = assay: Spot Blotch of Wheat (COCHSA), foliar spray, percent disease control; details: Bipolaris sorokiniana, foliar; read-out: COCHSA percent control
[1] = test system: Pseudoperonospora cubensis; assay: Cucumber Downy Mildew (PSPECU), foliar spray, percent disease control; details: foliar, read-out: PSPECU percent control
Procedure: The activity of the compounds as effective fungicides was determined by applying the compounds to plants and observing control of fungal disease. The compounds were formulated at 200 ppm in 10 vol. % acetone plus 90 vol. % Triton X water (deionized water 99.99 wt %+0.01 wt % Triton X100), giving a “formulated test compound.” In a few cases, compounds were formulated at 75 or 8.3 ppm rather than 200 ppm in 10 vol. % acetone plus 90 vol. % Triton X water (deionized water 99.99 wt. %+0.01 wt. % Triton X100), giving a “formulated test compound.” Formulated test compounds were applied to plants using a turn table sprayer fitted with two opposing air atomization nozzles which delivered approximately 1500 L/ha of spray volume. All plants were inoculated with spores of the fungus the day after treatment, then incubated in an environment conducive to disease development. Disease severity was evaluated 4 to 15 days later, depending on the disease and the speed of disease development. The following experiments were performed in the laboratory to determine the fungicidal efficacy of the compounds of the invention. Cucumber Downy Mildew (causal agent Pseudoperonospora cubensis; Bayer code […]): Cucumber plants (variety Bush Champion) were grown from seed in a soil-less peat-based potting mixture (Metromix) until the first true leaf was 20-80% expanded. Each pot contained 1 seedling. These plants were sprayed until wet with the formulated test compound. On the following day, the leaves were inoculated with an aqueous suspension of downy mildew sporangia and the plants were kept in high humidity for one day to permit sporangia to germinate and infect the leaf. The plants were then incubated in a growth chamber until disease developed on untreated control plants. […] The effectiveness of the test compounds at controlling disease when sprayed on leaves was determined by assessing the severity of disease on treated plants, then converting the severity to percent control based on the level of disease on untreated, inoculated plants. Data are the level (in percent) at which the given disease was controlled when the given compound was applied to the foliage of the plants at 200 ppm. In a few cases (noted in the table) the compound was applied to the plants at 75 ppm or 8.3 ppm.

Colletotricum lagenarium = assay: Cucumber Anthracnose (COLLLA), foliar spray, percent disease control; details: foliar
Procedure: The activity of the compounds as effective fungicides was determined by applying the compounds to plants and observing control of fungal disease. The compounds were formulated at 200 ppm in 10 vol. % acetone plus 90 vol. % Triton X water (deionized water 99.99 wt %+0.01 wt % Triton X100), giving a “formulated test compound.” In a few cases, compounds were formulated at 75 or 8.3 ppm rather than 200 ppm in 10 vol. % acetone plus 90 vol. % Triton X water (deionized water 99.99 wt. %+0.01 wt. % Triton X100), giving a “formulated test compound.” Formulated test compounds were applied to plants using a turn table sprayer fitted with two opposing air atomization nozzles which delivered approximately 1500 L/ha of spray volume. All plants were inoculated with spores of the fungus the day after treatment, then incubated in an environment conducive to disease development. Disease severity was evaluated 4 to 15 days later, depending on the disease and the speed of disease development. The following experiments were performed in the laboratory to determine the fungicidal efficacy of the compounds of the invention. Cucumber Anthracnose (causal agent Colletotricum lagenarium; Bayer code COLLLA): Cucumber plants (variety Bush Champion) were grown from seed in a soil-less peat-based potting mixture (Metromix) until the first true leaf was 20-80% expanded. Each pot contained 1 seedling. These plants were sprayed until wet with the formulated test compound. On the following day, the leaves were inoculated with an aqueous spore suspension of Colletotricum lagenarium and the plants were kept in high humidity for one day to permit spores to germinate and infect the leaf. The plants were then transferred to a growth chamber until disease developed on untreated control plants. […] The effectiveness of the test compounds at controlling disease when sprayed on leaves was determined by assessing the severity of disease on treated plants, then converting the severity to percent control based on the level of disease on untreated, inoculated plants. Data are the level (in percent) at which the given disease was controlled when the given compound was applied to the foliage of the plants at 200 ppm. In a few cases (noted in the table) the compound was applied to the plants at 75 ppm or 8.3 ppm.

Compound	pest or weed control at 200 µg/mL (Cochliobolus sativus)	pest or weed control at 200 µg/mL [1]	pest or weed control at 200 µg/mL (Colletotricum lagenarium)
c1ccc(COc2ccc(CCNc3ncnc4nccnc34)cc2)cc1 [Compound 1, [2-(4-Benzyloxyphenyl)-ethyl]-pteridin-4-yl-amine]	50 to 79%	80 to 100%	80 to 100%
FC(F)(F)c1ccnc(Oc2ccc(CCNc3ncnc4nccnc34)cc2)n1 [Compound 3]	0 to 49%	80 to 100%	50 to 79%
Oc1ccc(CCNc2ncnc3nccnc23)cc1 [Compound 4, 4-[2-(Pteridin-4-ylamino)-ethyl]-phenol]	0 to 49%	0 to 49%	0 to 49%
CC(Nc1ncnc2nccnc12)c1ccccc1 (stereo not drawn) [Compound 9]	0 to 49%	80 to 100%	0 to 49%
COc1ccnc(Oc2ccc(CCNc3ncnc4nccnc34)cc2)n1 [Compound 16]	0 to 49%	80 to 100%	0 to 49%
COc1ccc(C(C)Nc2ncnc3nccnc23)cc1 (stereo not drawn) [Compound 17]	0 to 49%	80 to 100%	50 to 79%
N#Cc1nccnc1Oc1ccc(CCNc2ncnc3nccnc23)cc1 [Compound 18]	0 to 49%	80 to 100%	0 to 49%
COc1ccc(C(C)Nc2nc(C)nc3nccnc23)cc1 (stereo not drawn) [Compound 19, [1-(4-Methoxyphenyl)ethyl]-2-methylpteridin-4-yl-amine]	0 to 49%	0 to 49%	0 to 49%
Oc1cccc(CCNc2ncnc3nccnc23)c1 [Compound 20]	0 to 49%	0 to 49%	0 to 49%
COc1nsc(Oc2ccc(CCNc3ncnc4nccnc34)cc2)n1 [Compound 21]	0 to 49%	50 to 79%	50 to 79%
c1ccc(-c2nsc(Oc3ccc(CCNc4ncnc5nccnc45)cc3)n2)cc1 [Compound 22]	0 to 49%	50 to 79%	50 to 79%
c1cc(-c2nnc(Oc3ccc(CCNc4ncnc5nccnc45)cc3)s2)ccn1 [Compound 23]	0 to 49%	0 to 49%	0 to 49%
Clc1nccc(Oc2ccc(CCNc3ncnc4nccnc34)cc2)n1 [Compound 24]	0 to 49%	80 to 100%	50 to 79%
CC(C)Cc1nnc(Oc2ccc(CCNc3ncnc4nccnc34)cc2)s1 [Compound 26]	0 to 49%	80 to 100%	0 to 49%
c1ccc(OCc2nnc(Oc3ccc(CCNc4ncnc5nccnc45)cc3)s2)cc1 [Compound 27]	0 to 49%	0 to 49%	0 to 49%
[O-][n+]1ccnc(Oc2ccc(CCNc3ncnc4nccnc34)cc2)c1 [Compound 29]	0 to 49%	80 to 100%	0 to 49%
Brc1nsc(Oc2ccc(CCNc3ncnc4nccnc34)cc2)n1 [Compound 33]	0 to 49%	0 to 49%	0 to 49%
N#Cc1c(Cl)cncc1Oc1ccc(CCNc2ncnc3nccnc23)cc1 [Compound 35]	0 to 49%	80 to 100%	0 to 49%
COc1cc(CCNc2ncnc3nccnc23)ccc1O [Compound 37]	0 to 49%	0 to 49%	0 to 49%

Compound	pest or weed control at 200 µg/mL (Cochliobolus sativus)	pest or weed control at 200 µg/mL [1]	pest or weed control at 200 µg/mL (Colletotricum lagenarium)
Cc1cnc2ncnc(NCCc3ccc(O)cc3)c2n1 [Compound 38]	0 to 49%	0 to 49%	0 to 49%
FC(F)(F)c1ccnc(Oc2cccc(CCNc3ncnc4nccnc34)c2)c1 [Compound 46]	0 to 49%	80 to 100%	80 to 100%
FC(F)(F)c1ccc(Oc2cccc(CCNc3ncnc4nccnc34)c2)nc1 [Compound 47]	0 to 49%	80 to 100%	50 to 79%
FC(F)(F)c1ccnc(Cl)c1Oc1ccc(CCNc2ncnc3nccnc23)cc1 [Compound 56]	0 to 49%	50 to 79%	0 to 49%
COc1cc(CCNc2ncnc3nccnc23)ccc1Oc1cc(C#N)ccn1 [Compound 57]	0 to 49%	80 to 100%	0 to 49%
N#Cc1c(Cl)cccc1Oc1ccc(CCNc2ncnc3nccnc23)cc1 [Compound 61]	0 to 49%	80 to 100%	0 to 49%
COc1ccc(CCNc2ncnc3nccnc23)c(F)c1 [Compound 62]	0 to 49%	80 to 100%	0 to 49%
CON=C(C)c1ccnc(Oc2ccc(CCNc3ncnc4nccnc34)cc2)c1 [Compound 63]	0 to 49%	80 to 100%	0 to 49%
O=C(c1ccnc(Oc2ccc(CCNc3ncnc4nccnc34)cc2)c1)C1CC1 [Compound 64]	0 to 49%	80 to 100%	0 to 49%
CC(Nc1ncnc2nccnc12)c1ccc(O)cc1 (stereo not drawn) [Compound 65, 4-[1-(Pteridin-4-ylamino)-ethyl]-phenol]	0 to 49%	50 to 79%	0 to 49%
Cc1cc(C(F)(F)F)cc(Oc2ccc(CCNc3ncnc4nccnc34)cc2)n1 [Compound 69]	0 to 49%	80 to 100%	80 to 100%
Fc1cnc(C(F)(F)F)c(F)c1Oc1cccc(CCNc2ncnc3nccnc23)c1 [Compound 71]	0 to 49%	0 to 49%	0 to 49%
Fc1cnc(C(F)(F)F)c(F)c1Oc1ccc(CCNc2ncnc3nccnc23)cc1 [Compound 72]	0 to 49%	80 to 100%	50 to 79%
Oc1ccc(CCNc2ncnc3ncc(Cl)nc23)cc1 [Compound 73]	0 to 49%	0 to 49%	0 to 49%
Ic1ccnc(Oc2cccc(CCNc3ncnc4nccnc34)c2)c1 [Compound 74]	0 to 49%	80 to 100%	0 to 49%
FC(F)(F)c1cnccc1Oc1cccc(CCNc2ncnc3nccnc23)c1 [Compound 77]	0 to 49%	80 to 100%	0 to 49%
CC(Sc1ncnc2nccnc12)c1ccc(C#N)cc1 (stereo not drawn) [Compound 78]	0 to 49%	0 to 49%	0 to 49%
Oc1ccc(OCCNc2ncnc3nccnc23)cc1 [Compound 80]	0 to 49%	0 to 49%	0 to 49%
